According to patent publication US20190330189A1, “ANTIBACTERIAL COMPOUNDS” (Janssen Sciences Ireland UC, priority 2015, published 2019):

Tests used:
[1] = system: Mycobacterium tuberculosis strain EH 4.0 (361.269); experiment: Test 4: MIC determination, resazurin fluorescence, strain EH 4.0; format: cell-based; conditions: for IC50: Mycobacterium tuberculosis, read-out: pIC50, Test 4, M. tuberculosis strain EH 4.0 (361.269) (converted); for pIC50: Test 4, M. tuberculosis strain EH 4.0 (361.269)
From the text: TEST 4 (See Also Test 1 Above; in this Test a Different Strain of Mycobacterium tuberculosis Strain is Employed)
Appropriate solutions of experimental and reference compounds were made in 96 well plates with 7H9 medium. Samples of Mycobacterium tuberculosis strain EH 4.0 (361.269) were taken from cultures in stationary growth phase. These were first diluted to obtain an optical density of 0.3 at 600 nm wavelength and then diluted 1/100, resulting in an inoculum of approximately 5×10 exp5 colony forming units per well. Plates were incubated at 37° C. in plastic bags to prevent evaporation. After 7 days, resazurin was added to all wells.

With CCc1nc2ncc(Cl)cn2c1C(=O)NCc1ccc(N2CC3(CC(=O)C3)C2)cc1 [Compound 126] the IC50 [1] was 10000 nM, the pIC50 [1] was 4.9 and the melting point was 187.49 °C.

With Cc1nn2ccccc2c1C(=O)NCc1ccc(C2CC3(C2)CN(c2ccccc2)C3)cc1 [Compound 127] the IC50 [1] was 126 nM, the pIC50 [1] was 7.0 and the melting point was 201.15 °C.

With CCc1nc2ncc(Cl)cn2c1C(=O)NCc1ccc(C2CC3(C2)CN(C(=O)C(F)(F)F)C3)cc1 [Compound 128] the IC50 [1] was 31.6 nM and the melting point was 160.59 °C.

Cc1nc2sc(Cl)cn2c1C(=O)NCc1ccc(N2CC3(CC(=O)C3)C2)cc1 [Compound 129] gave an IC50 [1] of 398 nM, a pIC50 [1] of 6.5 and a melting point of 188.46 °C.

CCc1nc2n(c1C(=O)NCc1ccc(N3CC4(CC(OC(F)(F)F)C4)C3)cc1)CCCC2 [Compound 130] gave an IC50 [1] of 15.8 nM and a melting point of 169.56 °C.

CCc1nc2ncc(Cl)cn2c1C(=O)NCc1ccc(N2CC3(CC(OC(F)(F)F)C3)C2)cc1 [Compound 131] gave an IC50 [1] of 5.01 nM and a melting point of 172.76 °C.

Work on CCc1nc2ccc(Cl)cn2c1C(=O)NCc1ccc(C2CC3(C2)CN(c2cnccn2)C3)cc1 [Compound 132] yielded an IC50 [1] of 7940 nM and a melting point of 149.46 °C.

CCc1nc2ncc(Cl)cn2c1C(=O)NCc1ccc(N2CCC3(CC2)CC(F)(F)C3)cc1 [Compound 133] gave an IC50 [1] of 2 nM and a melting point of 84.29 °C.

CCc1nc2ncc(Cl)cn2c1C(=O)NCc1ccc(C2CC3(C2)CN(c2cncnc2)C3)cc1 [Compound 134] gave an IC50 [1] of 6.31 nM and a melting point of 188.07 °C.

With CCc1nn2ccccc2c1C(=O)NCc1ccc(C2CC3(C2)CN(c2ccc(OC(F)(F)F)cc2)C3)cc1 [Compound 138] the IC50 [1] was 39.8 nM and the melting point was 105.98 °C.

CCc1nn2c(c1C(=O)NCc1ccc(C3CC4(C3)CN(c3ccc(OC(F)(F)F)cc3)C4)cc1)CCCC2 [Compound 139] showed an IC50 [1] of 7940 nM and a melting point of 135.21 °C.

Work on Cc1nn2ccccc2c1C(=O)NCC1CC2(CCN(c3ccc(OC(F)(F)F)cc3)CC2)C1 [Compound 140] yielded an IC50 [1] of 1580 nM and a melting point of 121.52 °C.

Work on Cc1nn2ccccc2c1C(=O)NCc1ccc(C2CC3(C2)CN(c2ccc(OC(F)(F)F)cc2)C3)cc1 [Compound 141] yielded an IC50 [1] of 31.6 nM and a melting point of 158.48 °C.

Molecule Cc1nn2ccccc2c1C(=O)NCc1ccc(N2CC3(C2)CN(c2ccc(OC(F)(F)F)cc2)C3)cc1 [Compound 142] has an IC50 [1] of 126 nM and a melting point of 193.19 °C.

With Cc1nn2ccccc2c1C(=O)NCc1ccc(N2CC3(CN(F)C3)C2)cc1 [Compound 143] the IC50 [1] was 398 nM and the melting point was 130.31 °C.

CCc1nn2ccccc2c1C(=O)NCc1ccc(N2CC3(C2)CN(c2ccc(OC(F)(F)F)cc2)C3)cc1 [Compound 144] gave an IC50 [1] of 79.4 nM and a melting point of 135.8 °C.

With CCc1nn2c(Cl)cccc2c1C(=O)NCc1ccc(C2CC3(C2)CN(c2ccc(OC(F)(F)F)cc2)C3)cc1 [Compound 146] the IC50 [1] was 316 nM and the melting point was 119.23 °C.

Molecule CCc1nn2c(OC)cccc2c1C(=O)NCc1ccc(C2CC3(C2)CN(c2ccc(OC(F)(F)F)cc2)C3)cc1 [Compound 147] has an IC50 [1] of 1260 nM and a melting point of 151.74 °C.

In the case of CCc1nc2ncc(Cl)cn2c1C(=O)NCc1ccc(N2CC3(C2)CC(F)(F)C3)cc1 [Compound 148], the IC50 [1] is reported as 15.8 nM and the melting point is reported as 158.14 °C.

CCc1nc2ncc(Cl)cn2c1C(=O)NCc1ccc(N2CC3(CC(Oc4ccc(F)cc4)C3)C2)cc1 [Compound 152] gave an IC50 [1] of 15.8 nM and a melting point of 350 °C.

For CCc1nc2ncc(Cl)cn2c1C(=O)NCc1ccc(N2CCC3(CC2)CC(OC(F)(F)F)C3)cc1 [Compound 153], the IC50 [1] was 2 nM and the melting point was 150.61 °C.

CCc1nc2c(F)cccn2c1C(=O)NCc1ccc(C2CC3(C2)CN(c2ccc(OC(F)(F)F)cc2)C3)cc1 [Compound 157] showed an IC50 [1] of 7940 nM and a melting point of 144.55 °C.

CCc1nc2ccc(Cl)cn2c1C(=O)NCc1ccc(N2CC3(CC(c4ccnn4C)C3)C2)cc1 [Compound 158] gave an IC50 [1] of 398 nM and a melting point of 101.95 °C.
